Holding throughout (format): cell-based
Experiment [1] concerns Pseudomonas aeruginosa (ATCC#15442). The experiment is described as follows: Microtiter plate synergy test (MIC, Kull synergy index), bacteria, Trypticase Soy Broth. Conditions: for Alone ppm (MIC of compound acting alone): Ps. aeruginosa, ppm active ingredient; for MIC: Pseudomonas aeruginosa, read-out: Alone ppm (MIC of compound acting alone). The text has this: (§1) One measure of synergism is the industrially accepted method described by Kull, F. C.; Eisman, P. C.; Sylwestrowicz, H. D. and Mayer, R. L., in Applied Microbiology 9:538-541 (1961), using the ratio determined by the formula: Qa/QA+Qb/QB=Synergy Index (“SI”) wherein: • QA=concentration of compound A (first component) in ppm, acting alone, which produced an end point (MIC of Compound A). • Qa=concentration of compound A in ppm, in the mixture, which produced an end point. • QB=concentration of compound B (second component) in ppm, acting alone, which produced an end point (MIC of Compound B). • Qb=concentration of compound B in ppm, in the mixture, which produced an end point.
(§2) When the sum of Qa/QA and Qb/QB is greater than one, antagonism is indicated. […] The lower the SI, the greater the synergy shown by that particular mixture. The minimum inhibitory concentration (MIC) of an antimicrobial compound is the lowest concentration tested under a specific set of conditions that prevents the growth of added microorganisms.
(§3) Synergy tests were conducted using standard microtiter plate assays (12 columns, 1-12×8 rows, A-H) with media designed for optimal growth of the test microorganism. Full-strength nutrient medium, Trypticase Soy Broth, TSB, for bacteria, or Potato Dextrose Broth, PDB, for fungi, was used for testing. Growth medium (160 μL) was dispensed into columns 2-6 and 8-12 of the plate. A total of 40 plates were made with each growth medium. Stock solutions of N-(n-butyl)-1,2-benzisothiazolin-3-one were made from DENSIL DG 20 (20% active ingredient (AI), n-BBIT, in propylene glycol, obtained from Avecia Inc.) at the following concentrations based on total product weight: 5000 ppm (0.2 g DENSIL DG 20 in 40 g growth medium), 4000 ppm, 3500 ppm, 3000 ppm, 2500 ppm, 2000 ppm, 1500 ppm, 1000 ppm and 900 ppm. Isothiazolone stock solutions were made as follows. KATHON LX (1.97% active, 3:1 CMI/MI mixture): active ingredient concentrations at 144 ppm, 36 ppm, 10 ppm, 5 ppm and 1 ppm. ROZONE 2000 (20% active, DCOIT): active ingredient concentrations at 144 ppm, 36 ppm, 10 ppm, 5 ppm and 1 ppm. ROCIMA 550 (9.5% active, MI): active ingredient concentrations at 4800 ppm, 2400 ppm, 900 ppm, 360 ppm and 180 ppm. DENSIL DG 20 stock solution was dispensed in each well of columns 1 and 7 of a microtiter plate, as described below:
(§4) 5000 ppm of stock solution was tested against Ps. aeruginosa in 1A, 7A. The 900 ppm stock was not tested against this organism. A 40 μL aliquot was transferred from each well in column 1 to column 2 and serially diluted to column 5; the aliquots from column 5 was discarded. Column 6 was the control. The same procedure was repeated from column 7 to column 11, and the aliquots from column 11 discarded. At the end of this procedure, each well should contain 160 μL of solution.
(§5) The isothiazolone stock solutions were added to various columns so that each well contained the desired concentration of the isothiazolone and the DENSIL DG20. The DENSIL DG20 alone as well as the isothiazolone alone were included as controls. An example of the combination of 11 ppm KATHON LX 1.5% (on an active ingredient basis) with DENSIL DG20 is shown below:
(§6) DENSIL DG20 alone (columns 1-5); untreated control (column 6); combination evaluations (columns 7-11); KATHON LX 1.5% control (column 12). Inoculum (10 μL) was dispensed into each well from column 1-12. […] The MIC of each biocide was determined from the plates, and then SI was determined.
(§7) The following Tables summarize data for combinations of n-BBIT with other isothiazolones (ITA), along with their synergy index (SI) and the ratio of n-BBIT:ITA. All amounts of n-BBIT and ITA are reported as ppm of active ingredient. Results for testing against various organisms are grouped with results against fungi (F) reported together, and then results against bacteria (B).
(§8) Typical contact time for bacteria is 24-48 hours and 3-7 days for fungi. […]

In experiment [2] the test system is Staphylococcus aureus (ATCC#6538). The experiment is described as above. Conditions: S. aureus, ppm active ingredient; for MIC: Staphylococcus aureus, ATCC6538, read-out: Alone ppm (MIC of compound acting alone).
Excerpt: as §1, §2, §3, §4, §5, §6, §7, §8

Experiment [3] relates to Klebsiella pneumoniae (ATCC#13583). Described as above. Conditions: for MIC: Klebsiella pneumoniae, read-out: Alone ppm (MIC of compound acting alone).
Excerpt: as §1, §2, §3, §4, §5, §6, §7, §8

Experiment [4] has as its system Aspergillus niger (ATCC#16404). Kind of experiment: Microtiter plate synergy test (MIC, Kull synergy index), fungi, Potato Dextrose Broth. Conditions: for Alone ppm (MIC of compound acting alone): A. niger, ppm active ingredient.
Excerpt: as §1, §2, §3, §4, §5, §6, §7, §8

Experiment [5] concerns Fusarium moniliforme (ATCC#58929). The experiment is described as above. Conditions: for MIC: Fusarium verticillioides, read-out: Alone ppm (MIC of compound acting alone).
Excerpt: as §1, §2, §3, §4, §5, §6, §7, §8

The subject of experiment [6] is Gliocladium viridie (Tricoderma viridie)(isolate). The experiment is described as above. Conditions: for Alone ppm (MIC of compound acting alone): G. viridie, ppm active ingredient; for MIC: read-out: Alone ppm (MIC of compound acting alone).
Excerpt: as §1, §2, §3, §4, §5
(§9) DENSIL DG20 alone (columns 1-5); untreated control (column 6); combination evaluations (columns 7-11); KATHON LX 1.5% control (column 12). Inoculum (10 μL) was dispensed into each well from column 1-12. The plates were incubated (bacterial plates at 48 hrs., 30° C.; fungal plates at 7 days, 25° C.). The MIC of each biocide was determined from the plates, and then SI was determined.
(§10) The following Tables summarize data for combinations of n-BBIT with other isothiazolones (ITA), along with their synergy index (SI) and the ratio of n-BBIT:ITA. All amounts of n-BBIT and ITA are reported as ppm of active ingredient. Results for testing against various organisms are grouped with results against fungi (F) reported together, and then results against bacteria (B). […]

The test system of experiment [7] is Candida albicans (ATCC#10231). The description is as above.
Excerpt: as §1, §2, §3, §4, §5, §9, §10

Experiment [8] deals with Escherichia coli (ATCC#8739). Kind of experiment: Microtiter plate synergy test (MIC, Kull synergy index), bacteria, Trypticase Soy Broth. Conditions: E. coli, ppm active ingredient.
Excerpt: as §1, §2, §3
(§11) 5000 ppm of stock solution was tested against Ps. aeruginosa in 1A, 7A. The 900 ppm stock was not tested against this organism. […]
(§12) DENSIL DG20 alone (columns 1-5); untreated control (column 6); combination evaluations (columns 7-11); KATHON LX 1.5% control (column 12). […] The MIC of each biocide was determined from the plates, and then SI was determined. […]

The subject of experiment [9] is Proteus mirabilis (ATCC#unknown). Described as above. Conditions: P. mirabilis, contact time 48 hr, ppm active ingredient.
Excerpt: as §1, §2, §3, §11, §12

Values joined by “and” are separate entries in the source; they are usually repeats but may differ in a detail not shown here. Equal entries are not always repeated. Where two headings read alike, the source gives them in different places.

Regarding `CCCCn1sc2ccccc2c1=O` [n-BBIT, N-(n-butyl)-1,2-benzisothiazolin-3-one], the “Alone ppm (MIC of compound acting alone)” value in experiment [1] (contact time 24 hr) was 711 ppm; in [1] (contact time 48 hr), 711 ppm; in experiment [2] (contact time 24 hr), 36 ppm; in experiment [2] (contact time 48 hr), 53 ppm; in experiment [3] (K. pneumoniae, contact time 24 hr, ppm active ingredient), 267 ppm; in experiment [3] (K. pneumoniae, contact time 48 hr, ppm active ingredient) it was 267 ppm. Further, the “Alone ppm (MIC of compound acting alone)” value was 28 ppm in experiment [4] (contact time 3 days); 53 ppm in experiment [4] (contact time 7 days); 267 ppm and 444 ppm in experiment [5] (F. moniliforme, contact time 3 days, ppm active ingredient); 533 ppm and 356 ppm and 267 ppm in experiment [5] (F. moniliforme, contact time 7 days, ppm active ingredient); 711 ppm in experiment [6] (contact time 3 days); more than 711 ppm in [6] (contact time 7 days). The “Alone ppm (MIC of compound acting alone)” value in experiment [7] (C. albicans, contact time 7 days, ppm active ingredient) was found to be 124 ppm; in [8] (contact time 24 hr), 356 ppm; in experiment [8] (contact time 48 hr), 533 ppm; in [9], 18 ppm.
For `Cn1sccc1=O` [MI, 2-methyl-4-isothiazolin-3-one], the MIC in experiment [1] (ATCC15442, 24 h) amounted to 20 µg/mL; in experiment [1] (ATCC15442, 48 h) it was 25 µg/mL; in experiment [3] (ATCC13583, 24 h), 25 µg/mL; in [4] (Aspergillus niger, ATCC16404, 168 h, read-out: Alone ppm (MIC of compound acting alone)), 200 µg/mL; in experiment [5] (ATCC58929, 72 h), 200 µg/mL; in experiment [5] (ATCC58929, 168 h), 200 µg/mL. In addition, the MIC in experiment [6] (72 h) amounted to 107 µg/mL; in experiment [6] (168 h), 133 µg/mL; in experiment [7] (Candida albicans, ATCC10231, 168 h, read-out: Alone ppm (MIC of compound acting alone)), 25 µg/mL.
For the molecule `CCCCCCCCn1sc(Cl)c(Cl)c1=O` [DCOIT, 4,5-dichloro-2-n-octyl-4-isothiazolin-3-one], the MIC in experiment [2] (contact time 24 hr) worked out at 6 µg/mL; in experiment [2] (contact time 48 hr), 9 µg/mL; in experiment [3] (ATCC13583, K. pneumoniae, contact time 48 hr, ppm active ingredient), 11 µg/mL; in experiment [5] (ATCC58929, 72 h, F. moniliforme, contact time 3 days, ppm active ingredient) it was 0.28 µg/mL; in [5] (ATCC58929, 168 h, F. moniliforme, contact time 7 days, ppm active ingredient) it was 1 µg/mL; in experiment [9] (Proteus mirabilis, read-out: Alone ppm (MIC of compound acting alone)), 5 µg/mL.
